From PMC3701070 (PLoS ONE, 2013) come the findings set out here.

Structures are written as SMILES. pIC50: −log10 of the molar value. Like-named read-outs stand apart in the source and are kept apart here.

In data set [1] the target is T1, BRK (h) (Homo sapiens, UniProt Q13882).
T1 construct: purchased Millipore
Description: Kinase panel (Millipore) enzyme activity. It counts as biochemical.

The target of data set [2] is T2, NEK11 (h) (Homo sapiens, UniProt Q8NG66).
T2 construct: purchased Millipore
Description: Kinase panel (Millipore) enzyme activity. It counts as biochemical.

The target of data set [3] is T3, SIK (h) (Homo sapiens, UniProt P57059).
T3 construct: purchased Millipore
Description: Kinase panel (Millipore) enzyme activity. It counts as biochemical.

For data set [4], the target named is ALK5 (Homo sapiens, UniProt P36897). Description: ALK5 cell-based assay.
Data set [5] deals with A375P cells. Description: Caspase-3/7 activation. The class given is cell-based, human. As to conditions: A375P (BRAF^V600E). The procedure:
(§1) At selected times, caspase-3/7 activity and cell density were determined using Caspase-Glo® (Promega) and CellTiter-Glo® reagents, respectively, using a PerkinElmer EnVision™ reader. Caspase activity was normalized to cell density and percent induction over the DMSO control was determined.
(§2) Cell cycle phases are shown in stacked format as a percentage of the total population. […] (PPTX) Click here for additional data file.

The test system of data set [6] is SK-MEL-28 cells. Description: Caspase-3/7 activation. It counts as cell-based, human. As to conditions: SK-MEL-28 (BRAF^V600E). The procedure: as §1, §2
The subject of data set [7] is A375P tumor xenografts (BRAF^V600E). Description: Pharmacodynamic markers in A375P tumor xenografts. The note with it: A375P xenograft, mice, 30 mg/kg oral once daily. The class given is in vivo. The procedure:
Tumors were harvested, homogenized (BD Bioscience Medimachine) in 1 mL each of ice-cold Western Blot Analysis buffer containing 4 mM sodium pyrophosphate, then centrifuged (18 000×g, 15 min, 4°C), and flash-frozen. Samples were analyzed by duplex ELISA (MesoScale Discovery) for total and phospho ERK1/2 per the manufacturer’s instructions using an MSD SI6000 reader.
A375P tumors were harvested at 6 h after the sixth daily dose with compound or vehicle, cut into samples of ∼100 mm^3 in volume, fixed in 10% neutral-buffered formalin (NBF, VWR) for 24 h, and transferred into 70% ethanol prior to paraffin embedding. Paraffin-embedded blocks were sectioned (4 µm to 5 µm) and immunostained for ppERK, Ki67, and p27^Kip1 by Mosaic Laboratories (Lake Forest, CA).
Phospho-ERK (pERK) is normalized to total ERK (tERK). Tumors harvested 6h post-last 6th dose were stained for Ki67, p27, and ppERK by immunohistochemistry and compared with pre-treatment controls (B). Data are representative of n = 3 studies and percent changes were calculated from the ratio of positively stained cells following drug treatment to those following vehicle control treatment, each as a percentage of the total cell population.

The nature of data set [8]: Pharmacokinetic analysis in tumor-bearing mice. As to conditions: 30 mg/kg oral once daily, blood. The procedure:
Compound concentrations were determined from flash-frozen hemolyzed blood samples (blood:water ratio of 1∶1) or tumor homogenates (tumor:water ratio of 1∶4) by HPLC/MS-MS analysis.

Data set [9] relates to A375P tumors (BRAF^V600E).
Description: Cells were implanted subcutaneously in female CD1 nu/nu mice and grown to form tumors. […] Tumor volumes were estimated twice weekly from two-dimensional caliper measurements using the prolate ellipsoid equation [drawing 1] , where v = volume (mm^3), l = length (mm), and w = width (mm), and reported as means for n of 7 or 8 mice per group. Tumor growth inhibition represents the percentage volume differential between treated and control tumors at the time when vehicle-treated tumors exceeded a volume of 1 000 mm^3. Partial regression is defined as a 50% decrease from an individual tumor's starting volume for at least 1 week (three consecutive measurements). […] All efforts were made to minimize suffering and mice were euthanized by carbon dioxide asphyxiation if at least one death occurred per treatment group, if an animal appeared moribund or in distress, or if the tumor became ulcerated.
Treatment continued until the mean tumor volume of each group reached 1 200 mm^3 or one death occurred. Mean tumor volumes are plotted with their standard error mean and complete (CR) or partial (PR) regressions are indicated for each group of n = 8 mice after 14 days of treatment.

T3 sequence (P57059 whole entry): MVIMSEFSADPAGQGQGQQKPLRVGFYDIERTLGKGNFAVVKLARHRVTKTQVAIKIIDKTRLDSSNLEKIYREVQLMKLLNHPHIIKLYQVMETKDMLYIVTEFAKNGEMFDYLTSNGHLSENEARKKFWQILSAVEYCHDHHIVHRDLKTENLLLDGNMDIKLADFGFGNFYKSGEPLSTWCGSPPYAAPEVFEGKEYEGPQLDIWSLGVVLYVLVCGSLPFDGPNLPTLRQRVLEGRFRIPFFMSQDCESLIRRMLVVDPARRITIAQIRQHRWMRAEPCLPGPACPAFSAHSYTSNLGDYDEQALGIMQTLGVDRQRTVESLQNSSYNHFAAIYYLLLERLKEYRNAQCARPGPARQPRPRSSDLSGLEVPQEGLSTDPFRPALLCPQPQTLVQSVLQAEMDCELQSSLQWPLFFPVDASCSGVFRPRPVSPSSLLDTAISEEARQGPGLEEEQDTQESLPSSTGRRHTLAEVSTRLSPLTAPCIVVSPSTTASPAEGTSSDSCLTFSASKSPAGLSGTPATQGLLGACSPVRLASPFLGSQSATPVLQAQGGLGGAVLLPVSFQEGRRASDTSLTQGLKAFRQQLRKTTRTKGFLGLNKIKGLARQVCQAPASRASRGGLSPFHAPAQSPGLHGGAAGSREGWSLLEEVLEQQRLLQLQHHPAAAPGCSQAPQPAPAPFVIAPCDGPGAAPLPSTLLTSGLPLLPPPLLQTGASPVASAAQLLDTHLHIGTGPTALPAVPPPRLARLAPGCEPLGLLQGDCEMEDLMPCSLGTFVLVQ
T1 sequence (Q13882 whole entry): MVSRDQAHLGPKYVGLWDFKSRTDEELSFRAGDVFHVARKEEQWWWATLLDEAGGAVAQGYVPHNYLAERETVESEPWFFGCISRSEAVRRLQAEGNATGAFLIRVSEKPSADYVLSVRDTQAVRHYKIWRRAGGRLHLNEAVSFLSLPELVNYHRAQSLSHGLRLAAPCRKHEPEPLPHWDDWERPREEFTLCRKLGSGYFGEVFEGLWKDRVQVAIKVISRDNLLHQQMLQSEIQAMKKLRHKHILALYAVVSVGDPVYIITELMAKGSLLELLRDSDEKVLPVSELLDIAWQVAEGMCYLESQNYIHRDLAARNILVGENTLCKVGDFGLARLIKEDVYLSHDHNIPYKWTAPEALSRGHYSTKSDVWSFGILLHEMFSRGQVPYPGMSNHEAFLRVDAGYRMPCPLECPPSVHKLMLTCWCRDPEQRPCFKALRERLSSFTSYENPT
Sequence of ALK5 (P36897 34-503, species assumed): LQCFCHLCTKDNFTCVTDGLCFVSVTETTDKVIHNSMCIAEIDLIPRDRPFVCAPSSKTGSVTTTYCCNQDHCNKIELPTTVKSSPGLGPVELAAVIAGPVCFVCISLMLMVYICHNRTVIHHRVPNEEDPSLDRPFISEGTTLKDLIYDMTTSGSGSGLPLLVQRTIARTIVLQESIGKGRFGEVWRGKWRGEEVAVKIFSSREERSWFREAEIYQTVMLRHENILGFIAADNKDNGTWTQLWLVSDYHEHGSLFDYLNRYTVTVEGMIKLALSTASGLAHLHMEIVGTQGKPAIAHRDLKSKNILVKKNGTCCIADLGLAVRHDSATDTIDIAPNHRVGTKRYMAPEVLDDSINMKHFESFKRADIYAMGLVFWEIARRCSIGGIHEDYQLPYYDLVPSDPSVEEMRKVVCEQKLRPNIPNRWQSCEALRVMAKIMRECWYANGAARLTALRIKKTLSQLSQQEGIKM
T2 sequence (Q8NG66 whole entry): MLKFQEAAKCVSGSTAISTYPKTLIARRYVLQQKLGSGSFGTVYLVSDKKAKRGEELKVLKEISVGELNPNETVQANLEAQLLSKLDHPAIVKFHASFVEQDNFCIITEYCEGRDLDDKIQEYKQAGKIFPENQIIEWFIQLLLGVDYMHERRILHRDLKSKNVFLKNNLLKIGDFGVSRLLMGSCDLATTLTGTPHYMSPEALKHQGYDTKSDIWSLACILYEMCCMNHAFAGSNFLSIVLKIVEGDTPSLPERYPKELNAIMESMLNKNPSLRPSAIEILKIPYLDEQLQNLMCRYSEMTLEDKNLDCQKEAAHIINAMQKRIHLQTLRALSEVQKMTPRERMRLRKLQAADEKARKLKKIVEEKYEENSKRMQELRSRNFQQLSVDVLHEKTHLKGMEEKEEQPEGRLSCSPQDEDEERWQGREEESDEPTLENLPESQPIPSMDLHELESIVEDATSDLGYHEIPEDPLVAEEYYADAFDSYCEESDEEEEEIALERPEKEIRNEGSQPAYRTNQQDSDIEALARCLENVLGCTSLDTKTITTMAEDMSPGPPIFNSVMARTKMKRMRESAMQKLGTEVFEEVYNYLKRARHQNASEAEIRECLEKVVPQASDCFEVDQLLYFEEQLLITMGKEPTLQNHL

Take `CC(C)(C)c1nc(-c2cccc(NS(=O)(=O)c3c(F)cccc3F)c2F)c(-c2ccnc(N)n2)s1` [dabrafenib]: the negative logarithm of the IC50 (pIC50) (usually the negative decadic logarithm of the IC50, by convention in mol/L) is 7.10 in [1], 7.70 in data set [2] and 7.57 in data set [3]. The “ALK5 inhibition in cell-based assay” value in [4] is recorded as “absence of ALK5 inhibition”. For the same compound, the “caspase-3/7 activation and apoptosis” value in data set [5] is “induced caspase-3/7 activation and apoptosis”; in [6] it was “induced caspase-3/7 activation and apoptosis”. The “downregulation of Ki67 in tumors, immunohistochemistry” value in data set [7] (6 h after sixth dose) was 28%. The “downregulation of pERK (ppERK) in tumors, immunohistochemistry” value in data set [7] (6 h after sixth dose) amounted to 89%. Moreover, the “upregulation of p27 in tumors, immunohistochemistry” value in [7] (6 h after sixth dose) came to 54%. In addition, the “time post-dosing for which reduction of tumor pERK is sustained” value in data set [7] (after 7 and 14 days of dosing) is listed as “up to 18 h”. Moreover, in data set [8], the oral bioavailability result is listed as “orally bioavailable”. The entries for the “period for which tumor growth inhibition was observed” value in data set [9] (30 mg/kg for 33 days) and in data set [9] (300 mg/kg for 43 days) were 14 days and 20 days, respectively.
